# Measured values taken from patent publication EP4678638A1, “NEW E3 UBIQUITIN LIGASE LIGAND, PROTEIN DEGRADATION AGENT AND USE THEREOF” (priority 2023, dated 2024).
# Legend:
# [1] = tested on: EGFR; assay: Western blot degradation of EGFR (H1975 Cell); format: cell-based, Human; settings: Table D2
# Protocol: Conventional Western blot assay was performed to evaluate the effects of the compounds of the present disclosure on the expression of target proteins in cells.
# (1) Cell Seeding and Protein Harvesting: The selected cells were processed according to the cell seeding procedure and protein harvesting procedure in Table III-2. Table III-2 Cell Seeding and Protein Harvesting Procedures
# (2) To the collected supernatant, 5X SDS sample loading buffer was added, followed by denaturation at 95°C for 5 minutes. The denatured samples were then separated by SDS-PAGE electrophoresis on a polyacrylamide gel. Proteins were transferred to a nitrocellulose membrane (0.45 µm NC membrane), blocked with blocking buffer at room temperature for 1 hour, and subjected to antibody incubation and development procedures according to the antibody manufacturer's instructions (Cell Signaling Technology).
# Half-Maximal Degradation Concentration value (the drug concentration required for degrading proteins by 50%, abbreviated as DC50) reads method: comparing the grayscale values of Western blot bands from drug-treated samples with those from blank DMSO-treated controls, and identifying the drug concentration range at which the grayscale value is half that of the DMSO-treated control bands.
# DC50 values can be calculated using ImageJ software to measure grayscale values of Western blot bands from drug-treated samples. The concentration-response curve is fitted to estimate the drug concentration corresponding to half the grayscale value.
# Target protein remaining (%) refers to the percentage of target protein remaining in hPBMC cells after treatment with protein degrader compounds.
# Calculation method for target protein remaining (%): Use ImageJ software to measure grayscale values of Western blot bands from drug (protein degrader)-treated samples. The grayscale value of drug-treated bands is divided by that of internal control protein bands, and the resulting quotient is normalized to obtain the relative percentage of remaining target protein after protein degrader treatment.
# Target protein degradation rate (%) = 100% - target protein remaining (%).
# [2] = tested on: H1975; assay: CCK-8 proliferation, NCI-H1975 (H1975); format: cell-based, Human; settings: Homo sapiens, NCI-H1975; CCK-8; 96 hours; read-out: Inhibitory activity (IC50) on tumor cell proliferation, H1975
# Summary of the method: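 CCK-8 viability readout; IC50 from growth-inhibition curve fitting. Cells plated, dosed 24h later with a 10-point series, top 10µM, 5-fold steps. Culture at 37°C, 5% CO2.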
Compound,Degradation of substrate protein EGFR (substrate protein remaining %) [1],IC50 [2] [nM]
"O=C1CCC(c2ccc(CN3C[C@@H]4C[C@H]3CN4c3ccc(-c4cc(F)c5c(c4)C(=O)N(C(C(=O)Nc4nccs4)c4ncn6c4CCC6)C5)cc3)cc2)C(=O)N1 (stereo partly drawn) [GT-05115, 2-(6,7-dihydro-5H-pyrrolo[1,2-c]imidazol-1-yl)-2-(6-(4-((1S,4S)-5-(4-(2,6-dioxopiperidin-3-yl)benzyl)-2,5-diazabicyclo[2.2.1]heptan-2-yl)phenyl)-4-fluoro-1-oxoisoindolin-2-yl)-N-(thiazol-2-yl)acetamide]",A (A is defined as 0% ≤ substrate protein remaining % ≤ 80%),10 to 50
"O=C1CCN(c2ccc(CN3C[C@@H]4C[C@H]3CN4c3ccc(-c4cc(F)c5c(c4)C(=O)N(C(C(=O)Nc4nccs4)c4ncn6c4CCC6)C5)cc3)cc2)C(=O)N1 (stereo partly drawn) [GT-05116, 2-(6,7-dihydro-5H-pyrrolo[1,2-c]imidazol-1-yl)-2-(6-(4-((1S,4S)-5-(4-(2,4-dioxotetrahydropyrimidin-1(2H)-yl)benzyl)-2,5-diazabicyclo[2.2.1]heptan-2-yl)phenyl)-4-fluoro-1-oxoisoindolin-2-yl)-N-(thiazol-2-yl)acetamide]",A (A is defined as 0% ≤ substrate protein remaining % ≤ 80%),10 to 50
"CCn1nc(N2CCC(N(C)Cc3ccc(N4CCC(=O)NC4=O)nc3)CC2)c2cnc(Nc3ccnc(-c4cnn(S(=O)(=O)C5CC5)c4)n3)cc21 [GT-06022, 1-(5-(((1-(6-((2-(1-(cyclopropylsulfonyl)-1H-pyrazol-4-yl)pyrimidin-4-yl)amino)-1-ethyl-1H-pyrazolo[4,3-c]pyridin-3-yl)piperidin-4-yl)(methyl)amino)methyl)pyridin-2-yl)dihydropyrimidine-2,4(1H,3H)-dione]",A (A is defined as 0% ≤ substrate protein remaining % ≤ 80%),
"COC1CCN(c2nccc(Nc3cc4c(cn3)c(N3CCN(Cc5cccc(N6CCC(=O)NC6=O)c5)CC3)nn4C(C)C)n2)CC1 [GT-06038, 1-(3-((4-(1-isopropyl-6-((2-(4-methoxypiperidin-1-yl)pyrimidin-4-yl)amino)-1H-pyrazolo[4,3-c]pyridin-3-yl)piperazin-1-yl)methyl)phenyl)dihydropyr imidine-2,4(1H,3H)-dione]",A (A is defined as 0% ≤ substrate protein remaining % ≤ 80%),
"COC1CCN(c2nccc(Nc3cc4c(cn3)c(N3CCN(Cc5ccc(N6CCC(=O)NC6=O)cn5)CC3)nn4C(C)C)n2)CC1 [GT-06039, 1-(6-((4-(1-isopropyl-6-((2-(4-methoxypiperidin-1-yl)pyrimidin-4-yl)amino)-1H-pyrazolo[4,3-c]pyridin-3-yl)piperazin-1-yl)methyl)pyridin-3-yl)dihydropyrimidine-2,4(1H,3H)-dione]",A (A is defined as 0% ≤ substrate protein remaining % ≤ 80%),
"CC(C)n1nc(N2CCC(N3CCN(Cc4ccc(N5CCC(=O)NC5=O)cc4)CC3)CC2)c2cnc(Nc3ccnc(-c4cnn(S(=O)(=O)C5CC5)c4)n3)cc21 [GT-06079, 1-(4-((4-(1-(6-((2-(1-(cyclopropylsulfonyl)-1H-pyrazol-4-yl)pyrimidin-4-yl)amino)-1-isopropyl-1H-pyrazolo[4,3-c]pyridin-3-yl)piperidin-4-yl)piperazin-1-yl)methyl)phenyl)dihydropyr imidine-2,4(1H,3H)-dione]",A (A is defined as 0% ≤ substrate protein remaining % ≤ 80%),
"CC(C)n1nc(N2CCC(N3CCN(Cc4cccc(NC5CCC(=O)NC5=O)c4)CC3)CC2)c2cnc(Nc3ccnc(-c4cnn(S(=O)(=O)C5CC5)c4)n3)cc21 (centres unmarked) [GT-06083, 3-((3-((4-(1-(6-((2-(1-(cyclopropylsulfonyl)-1H-pyrazol-4-yl)pyrimidin-4-yl)amino)-1-isopropyl-1H-pyrazolo[4,3-c]pyridin-3-yl)piperidin-4-yl)piperazin-1-yl)methyl)phenyl)amino)pip eridine-2,6-dione]",A (A is defined as 0% ≤ substrate protein remaining % ≤ 80%),
"COC1CCN(c2nccc(Nc3cc4c(cn3)c(N3CCC(N(C)Cc5ccc(C6CCC(=O)NC6=O)cc5)CC3)nn4C(C)C)n2)CC1 (centres unmarked) [GT-06120, 3-(4-(((1-(1-isopropyl-6-((2-(4-methoxypiperidin-1-yl)pyrimidin-4-yl)amino)-1H-pyrazolo[4,3-c]pyridin-3-yl)piperidin-4-yl)(methyl)amino)methyl)phenyl)piperidine-2,6-dione]",A (A is defined as 0% ≤ substrate protein remaining % ≤ 80%),
"COC1CCN(c2nccc(Nc3cc4c(cn3)c(N3CCC(N(C)Cc5ccc(N6CCC(=O)NC6=O)cc5)CC3)nn4C(C)C)n2)CC1 [GT-06121, 1-(4-(((1-(1-isopropyl-6-((2-(4-methoxypiperidin-1-yl)pyrimidin-4-yl)amino)-1H-pyrazolo[4,3-c]pyridin-3-yl)piperidin-4-yl)(methyl)amino)methyl)phenyl)dihydropyrimidine-2,4(1H,3H)-dione]",A (A is defined as 0% ≤ substrate protein remaining % ≤ 80%),
"COC1CCN(c2nccc(Nc3cc4c(cn3)c(N3CCC(N(C)Cc5cccc(N6CCC(=O)NC6=O)c5)CC3)nn4C(C)C)n2)CC1 [GT-06122, 1-(3-(((1-(1-isopropyl-6-((2-(4-methoxypiperidin-1-yl)pyrimidin-4-yl)amino)-1H-pyrazolo[4,3-c]pyridin-3-yl)piperidin-4-yl)(methyl)amino)methyl)phenyl)dihydropyrimidine-2,4(1H,3H)-dione]",A (A is defined as 0% ≤ substrate protein remaining % ≤ 80%),
"COC1CCN(c2nccc(Nc3cc4c(cn3)c(N3CCC(N(C)Cc5cccc(NC6CCC(=O)NC6=O)c5)CC3)nn4C(C)C)n2)CC1 (centres unmarked) [GT-06123, 3-((3-(((1-(1-isopropyl-6-((2-(4-methoxypiperidin-1-yl)pyrimidin-4-yl)amino)-1H-pyrazolo[4,3-c]pyridin-3-yl)piperidin-4-yl)(methyl)amino)methyl)phenyl)amino)piperidine-2,6-dione]",A (A is defined as 0% ≤ substrate protein remaining % ≤ 80%),
"O=C1CCN(c2ccc(CN3C4CCC3CN(c3ccc(-c5cc(F)c6c(c5)C(=O)N(C(C(=O)Nc5nccs5)c5ncn7c5CCC7)C6)cc3)C4)cn2)C(=O)N1 (centres unmarked) [GT-06256, 2-(6,7-dihydro-5H-pyrrolo[1,2-c]imidazol-1-yl)-2-(6-(4-(8-((6-(2,4-dioxotetrahydropyrimidin-1(2H)-yl)pyridin-3-yl)methyl)-3,8-diazabicyclo[3.2.1]octan-3-yl)phenyl)-4-fluoro-1-oxoisoindolin-2-yl)-N-(thiazol-2-yl)acetamide]",A (A is defined as 0% ≤ substrate protein remaining % ≤ 80%),
"CN(Cc1ccc(N2CCC(=O)NC2=O)cc1)C1CCN(c2ccc(Nc3ncc4nc(Nc5ccccc5)n(C5CCCC5)c4n3)cc2)CC1 [GT-07092, 1-(4-(((1-(4-((9-cyclopentyl-8-(phenylamino)-9H-purin-2-yl)amino)phenyl)piperidin-4-yl)(methyl)amino)methyl)phenyl)dihydropyrimidine-2,4(1H,3H)-dione]",A (A is defined as 0% ≤ substrate protein remaining % ≤ 80%),
"CN(Cc1ccc(N2CCC(=O)NC2=O)cn1)C1CCN(c2ccc(Nc3ncc4nc(Nc5ccccc5)n(C5CCCC5)c4n3)cc2)CC1 [GT-07093, 1-(6-(((1-(4-((9-cyclopentyl-8-(phenylamino)-9H-purin-2-yl)amino)phenyl)piperidin-4-yl)(methyl)amino)methyl)pyridin-3-yl)dihydropyrimidine-2,4(1H,3H)-dione]",A (A is defined as 0% ≤ substrate protein remaining % ≤ 80%),
"CN(Cc1cccc(NC2CCC(=O)NC2=O)c1)C1CCN(c2ccc(Nc3ncc4nc(Nc5ccccc5)n(C5CCCC5)c4n3)cc2)CC1 (centres unmarked) [GT-07094, 3-((3-(((1-(4-((9-cyclopentyl-8-(phenylamino)-9H-purin-2-yl)amino)phenyl)piperidin-4-yl)(methyl)amino)methyl)phenyl)amino)piperidine-2,6-dione]",A (A is defined as 0% ≤ substrate protein remaining % ≤ 80%),
